Measurements: patent EP0138995B1, “REGULATION OF ENZYMES WHICH UTILIZE TETRAHYDROBIOPTERIN OR TETRAHYDROFOLATE COFACTORS WITH 6, 6-DISUBSTITUTED-TETRAHYDROPTERIDINES” (South Alabama Medical Science Foundation, priority 1983, dated 1984)
Where two headings read alike, the source gives them in different places.

Key:
[1] = molecular target: T1, Rat Liver Phenylalanine Hydroxylase (Rattus norvegicus, UniProt P04176); experiment: Phenylalanine hydroxylase cofactor assay (cofactor consumption and tyrosine formation); type: biochemical; conditions: for Relative Vmax: relative to l-BH4 = 1.0; for 6,6-Me2PH4 oxidized: 2-3 minutes, no regenerating system; for 6,6-Me2PH4 tyrosine: ratio cofactor oxidized to tyrosine produced
T1 construct: Cofactor for Rat Liver Phenylalanine Hydroxylase; from tissue; host or cells: rat liver
T1 sequence (P04176 1-453): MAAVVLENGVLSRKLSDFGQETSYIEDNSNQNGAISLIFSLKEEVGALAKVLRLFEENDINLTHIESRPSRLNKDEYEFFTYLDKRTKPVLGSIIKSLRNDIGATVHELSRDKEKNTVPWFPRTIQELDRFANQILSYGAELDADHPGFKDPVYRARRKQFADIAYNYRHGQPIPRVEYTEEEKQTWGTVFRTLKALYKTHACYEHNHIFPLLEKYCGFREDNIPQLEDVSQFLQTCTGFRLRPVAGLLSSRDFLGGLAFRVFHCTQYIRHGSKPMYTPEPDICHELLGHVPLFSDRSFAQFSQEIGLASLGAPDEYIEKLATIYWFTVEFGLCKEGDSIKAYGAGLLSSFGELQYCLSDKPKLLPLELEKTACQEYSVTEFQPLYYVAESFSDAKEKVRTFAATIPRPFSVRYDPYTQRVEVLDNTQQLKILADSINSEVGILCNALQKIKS
Experimental: The 6,6-dimethyl substituted tetrahydropterin was tested for cofactor activity in a standard phenylalanine hydroxylase assay in which both cofactor consumption and tyrosine formation were monitored. […] An apparent Michaelis constant was determined at 1 mM phenylalanine and atmospheric oxygen with concentrations of 6,6-Me₂PH₄ ranging from 0.02-0.3 mM. The effect of a second methyl at the 6-position slightly increases the affinity for phenylalanine hydroxylase, since the apparent Km was two-thirds to three-quarters that of 6-methyl and 6,7-dimethyltetrahydropterin (Table IV). […] The maximum velocity of the reaction with 6,6-Me₂PH₄ is similar to that with the 6,7-dimethyl compound and about 6 times slower than with the natural cofactor (Table IV).

[2] = cited from earlier work; for concentration: read-out: blood level
[3] = cited from earlier work
[4] = Rate of air oxidation of 6,6-Me2PH4; type: physicochemical; conditions: 0.1 M Tris·HCl, pH 7.4 at 27°
Experimental: Stability. The rate of air oxidation of 6,6-Me₂PH₄ was measured in 0.1 M Tris·HCl, pH 7.4 at 27°, i.e., enzyme assay conditions. […] This is similar to the constant previously determined for 6,7-Me₂PH₄.

[5] = Preliminary in vivo testing: brain concentration after intraperitoneal injection; conditions: mice, intraperitoneally, 0.1 µmole/g body weight
Experimental: Preliminary in vivo testing of 6,6-disubstituted pteridines has been conducted. 6,6-Dimethyltetrahydropterin was injected intraperitoneally into mice at a dose rate of 0.1 µmole/g body weight. Maximum brain concentration was reached about one hour after injection and was more than 30 times higher than the maximum level reached by tetrahydrobiopterin injected in a similar manner.

[6] = molecular target: T1, Rat Liver Phenylalanine Hydroxylase; conditions: data from the literature (footnotes c, d), cited from earlier work
[7] = rats, 125 mg BH4/kg intravenously, cited from earlier work
[8] = cited from earlier work; remark: listed apart in the source
[9] = molecular target: T2, Beef Liver Dihydropteridine Reductase (Bos taurus, UniProt Q3T0Z7); experiment: Quinoid dihydropterin as substrate for dihydropteridine reductase (beef liver); type: biochemical; conditions: substrate produced by Peroxidase + H2O2
T2 construct: from tissue; host or cells: beef liver
T2 sequence (Q3T0Z7 1-242): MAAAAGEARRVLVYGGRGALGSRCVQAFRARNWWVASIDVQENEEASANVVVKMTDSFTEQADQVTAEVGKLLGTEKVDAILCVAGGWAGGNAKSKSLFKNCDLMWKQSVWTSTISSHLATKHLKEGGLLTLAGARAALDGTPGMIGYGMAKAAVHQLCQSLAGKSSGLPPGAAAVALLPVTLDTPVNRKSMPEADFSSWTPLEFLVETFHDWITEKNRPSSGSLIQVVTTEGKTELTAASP
Experimental: (§1) The quinoid was generated from 6,6-Me₂PH₄, as outlined previously. […] Peroxidase (6 units/ml final volume) was temperature equilibrated in 0.1 M Tris·HCl, pH 7.4, at 27° for 5 minutes. H₂O₂ (1.2 mM final concentration) was then added, followed by 6,6-Me₂PH₄. […] At 5 minutes, 6,6-Me₂PH₄ was introduced and monitored at 340 nm. […] Reaction was then initiated with dihydropteridine reductase (0.01 units/ml). Rates were calculated from the enzyme dependent decrease in O.D. at 340 nm, using an extinction coefficient of 9.8 for the chemically synthesized substrate and 6.2 for the peroxidase- and phenylalanine-hydroxylase-containing reactions in which the pterin is maintained in the quinoid form.

[10] = molecular target: T3, phenylalanine hydroxylase (Rattus norvegicus, UniProt P04176); experiment: Inhibition of phenylalanine hydroxylase by dihydropterins; type: biochemical; conditions: competitive inhibition; 6-MePH4 as cofactor 0.05 mM to 0.3 mM; read-out: apparent Ki
T3 construct: from tissue
T3 sequence (P04176 1-453): T1 sequence (P04176 1-453)
Experimental: Measurements were made under standard assay conditions with cofactor concentration varied between 0.05 and 0.3 mM. Stock solutions of 6,6-Me₂PH₂ were in 0.1 M assay buffer.
Standard assay conditions, with 6-MePH₄ as cofactor over a range of 0.05 mM to 0.3 mM, were employed.

[11] = cited from earlier work; remark: listed apart in the source
[12] = molecular target: T4, Sheep Liver Dihydropteridine Reductase (Ovis aries, UniProt A0ACI6QPJ5); experiment: Quinoid dihydropterin as substrate for dihydropteridine reductase (sheep liver); type: biochemical; conditions: substrate produced by Peroxidase + H2O2
T4 sequence (A0ACI6QPJ5 46-254): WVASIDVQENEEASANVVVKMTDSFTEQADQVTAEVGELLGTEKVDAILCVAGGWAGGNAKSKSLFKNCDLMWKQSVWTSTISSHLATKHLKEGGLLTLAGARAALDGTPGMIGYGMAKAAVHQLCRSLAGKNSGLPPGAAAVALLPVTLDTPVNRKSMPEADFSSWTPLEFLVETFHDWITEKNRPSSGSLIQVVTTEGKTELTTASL
Experimental: as §1, with “6,6-Me₂PH₄. Conversion to q-6,6-Me₂PH₂, monitored at 340 nm, was complete within a few seconds. • (iii) Generation by phenylalanine hydroxylase:” for “6,6-Me₂PH₄.”, “nm. Conversion of 6,6-Me₂PH₄ to quinoid dihydropterin was complete in 1-7 minutes, depending on the concentration.” for “nm.”, “form. […] This Km was obtained regardless of the method of generation of the quinoid dihydropterin. The Vmax's were also the same for the dihydropteridine reductase catalyzed reduction of quinoid generated by any of the three methods (Table VI). Thus, the quinoid products of each procedure appear to behave equally.” for “form.”

[13] = 0.2 mM cofactor, l-BH4: sigmoidal curve, Hill coefficient = 2, read-out: Km' for Phenylalanine
[14] = 1 mM phenylalanine, atmospheric oxygen, 0.1 M Tris·HCl, pH 7.4, 27°C, read-out: Km' for Cofactor

Compound: CC1CNc2nc(N)[nH]c(=O)c2N1 (stereo not shown) [Compound 6-MePH4, 6-methyltetrahydropterin]
- Relative Vmax [1]: 0.77
- share of striatal 6-MePH4 remaining in the fully reduced tetrahydro-form ([2]; 2 hrs after injection, Kapatos and Kaufman): over 85%
- share of 6-MePH4 in the brain in the reduced form ([2]; Curtius et al.): 30%
- efficiency of entry into the brain, times that of an equal dose of BH4 ([2]; rats, 0.11 µmole (i.p.)/gm body weight): up to 10
- brain level ([2]; rats, 0.11 µmole (i.p.)/gm, at 30 minutes, maintained until 2 hours): 2 nmoles/g brain
- brain level as share of that expected assuming equal body distribution ([2]; rats, 0.11 µmole (i.p.)/gm): 2%
- concentration ([2]; rats, i.p., at 30 minutes): 40 µM
- concentration ([2]; rats, i.p., by 2 hrs): 10 µM
- half life for retention by the brain ([2]; rats, i.p.): 180 min
- half life for retention by the plasma ([2]; rats, i.p.): 42 min
- CSF level ([3]; at 9.5 hours after intravenous injection of 20 mg/kg): 0.06 µg/mL
- CSF level ([3]; three hours after intravenous injection of 20 mg/kg, 180 min): 0.45 µg/mL
- CSF level as share of that expected on the basis of equal body distribution ([3]; three hours after intravenous injection of 20 mg/kg): 2.2%
- CSF 5-hydroxyindoleacetic acid ([3]; two hours after 8 mg/kg, from 6 before, normal = 30): 18 ng/mL
- CSF homovanillic acid ([3]; two hours after 8 mg/kg, from 9 before, normal 132): 22 ng/mL

Compound: CC1(C)CNc2nc(N)[nH]c(=O)c2N1 [6,6-Me2PH4, 6,6-Dimethyltetrahydropterin]
- half-life [4]: 23 min
- pseudo first order rate constant of air oxidation [4]: 0.03 min⁻¹
- coupling of the reaction (tyrosine formed per cofactor molecule consumed) [1]: completely coupled reaction
- maximum velocity, times slower than with the natural cofactor [1]: about 6
- Tyrosine produced ([1]; Initial [6,6-Me2PH4] 0.01 mM): 4.27 nmol
- 6,6-Me2PH4 oxidized ([1]; Initial [6,6-Me2PH4] 0.01 mM): 4.4 nmol
- Tyrosine produced ([1]; Initial [6,6-Me2PH4] 0.03 mM): 9.77 nmol
- 6,6-Me2PH4 oxidized ([1]; Initial [6,6-Me2PH4] 0.03 mM): 9.1 nmol
- Tyrosine produced ([1]; Initial [6,6-Me2PH4] 0.06 mM): 12.57 nmol
- 6,6-Me2PH4 oxidized ([1]; Initial [6,6-Me2PH4] 0.06 mM): 11.76 nmol
- Tyrosine produced ([1]; Initial [6,6-Me2PH4] 0.1 mM): 19.25 nmol
- 6,6-Me2PH4 oxidized ([1]; Initial [6,6-Me2PH4] 0.1 mM): 21.18 nmol
- 6,6-Me2PH4 tyrosine ([1]; Initial [6,6-Me2PH4] 0.01 mM): 1.03
- 6,6-Me2PH4 tyrosine ([1]; Initial [6,6-Me2PH4] 0.03 mM): 0.93
- 6,6-Me2PH4 tyrosine ([1]; Initial [6,6-Me2PH4] 0.06 mM): 0.94
- 6,6-Me2PH4 tyrosine ([1]; Initial [6,6-Me2PH4] 0.1 mM): 1.10
- Relative Vmax [1]: 0.17
- maximum brain concentration, times higher than the maximum level reached by tetrahydrobiopterin [5]: more than 30
- time after injection at which maximum brain concentration was reached [5]: about one

Compound: C[C@H](O)[C@H](O)[C@H]1CNc2nc(N)[nH]c(=O)c2N1 [l-BH4, tetrahydrobiopterin]
- Km [6, 13]: 170 µM
- Km [6, 14]: 21 ± 3 µM
- maximum increase of BH4 in the striatum ([7]; in 15 mins): 30%
- striatal increase as share of the concentration administered assuming uniform body distribution [7]: 0.2%
- time of return of striatal BH4 to normal [7]: less than 2 hours
- increase in CSF BH4 ([8]; 2 mg BH4 (i.v.)/kg/day for 3 days, 1 day after the last injection, BH4-synthesis-deficient child): no increase
- CSF BH4 ([8]; 2.5 hours after oral treatment, in two equal doses, from 2 ng before): 44 ng/mL
- CSF BH4 as share of that expected assuming uniform body distribution and retention ([8]; 2.5 hours after oral treatment): 0.22%

Compound: CC1(c2ccccc2)CNC2=NC(N)=NC(=O)C2=N1 (stereo not shown) [Compound 6-Ph-6-MePH2, 2-Amino-4-hydroxy-6-methyl-6-phenyl-quinoid-dihydro-pteridine]
- Relative Vmax Beef [9]: 0.6

Compound: C[C@H](O)[C@H](O)C1=Nc2c(nc(N)[nH]c2=O)NC1 [7,8-dihydrobiopterin, reference compound]
- Ki [10]: 50 µM

Compound: CC(O)C(O)C1=Nc2c(nc(N)[nH]c2=O)NC1 (stereo not shown) [Dihydrobiopterin]
- time normal levels of phenylalanine were maintained ([11]; orally 2.5 mg/kg): 24 h

Compound: CC1Nc2nc(N)[nH]c(=O)c2NC1C (stereo not shown) [6,7-Me2PH4, 6,7-dimethyltetrahydropterin]
- Km [6, 13]: 800 ± 100 µM
- Km [6, 14]: 90 ± 10 µM
- Relative Vmax ([6]; relative to l-BH4 = 1.0): 0.17

Compound: quinoid dihydrobiopterin [dihydro-biopterin (natural isomer), reference compound]
- Km [9]: 0.004 mM
- Relative Vmax Beef [9]: 0.5
- Km [12]: 0.004 mM
- Relative Vmax Sheep [12]: 0.5

Compound: C[C@H](O)C(=O)C1=Nc2c(nc(N)[nH]c2=O)NC1 [sepiapterin]
- time normal levels of phenylalanine were maintained ([11]; orally 0.6 mg-1.25 mg/kg): 24 h
- effect on neurological symptoms ([8]; 2.75 mg (p.o.)/kg, one patient): shown to have an effect

Compound: CC1N=C2C(=O)N=C(N)N=C2NC1C (stereo not shown) [6,7-Me2PH2]
- Relative Vmax Sheep [12]: 2
